Test results: PubChem BioAssay AID1745844 (Carcinogenic Potency Database (CPDB), 2022)
Activity calls are given as the source filed them. No rule for the calls is given here.

Tested on: rodent lifetime carcinogenesis bioassay, tumor incidence TD50
Assay: chronic cancer bioassays in animals – CPDB, compiled studies (AID 1745844)
Settings: in drinking water

CN(N)C=O
TD50 (hamster, strain Syrian Golden, females, site: all sites, lesion: histiocytoma, malignant, dosed 102 weeks, study length 102 weeks): 4.71 mg/kg/day | TD50 (hamster, strain Syrian Golden, females, site: any site (literature study), lesion: several types, types named in the paper, dosed 102 weeks, study length 102 weeks): 6.04 mg/kg/day | TD50 (hamster, strain Syrian Golden, females, site: gall bladder, lesion: several types, types named in the paper, dosed 102 weeks, study length 102 weeks): 29.1 mg/kg/day | TD50 (hamster, strain Syrian Golden, females, site: liver, lesion: hepatoma, dosed 102 weeks, study length 102 weeks): 28.3 mg/kg/day | TD50 (hamster, strain Syrian Golden, females, site: liver, lesion: liver-cell carcinoma, dosed 102 weeks, study length 102 weeks): 25.1 mg/kg/day | TD50 (hamster, strain Syrian Golden, females, site: liver, lesion: several types, types named in the paper, dosed 102 weeks, study length 102 weeks): 11.3 mg/kg/day | TD50 (hamster, strain Syrian Golden, males, site: all sites, lesion: histiocytoma, malignant, dosed 102 weeks, study length 102 weeks): 12.7 mg/kg/day | TD50 (hamster, strain Syrian Golden, males, site: any site (literature study), lesion: several types, types named in the paper, dosed 102 weeks, study length 102 weeks): 4.89 mg/kg/day | TD50 (hamster, strain Syrian Golden, males, site: bile duct, lesion: several types, types named in the paper, dosed 102 weeks, study length 102 weeks): 19.7 mg/kg/day | TD50 (hamster, strain Syrian Golden, males, site: gall bladder, lesion: papillary adenoma, dosed 102 weeks, study length 102 weeks): 42.5 mg/kg/day | TD50 (hamster, strain Syrian Golden, males, site: gall bladder, lesion: several types, types named in the paper, dosed 102 weeks, study length 102 weeks): 25.3 mg/kg/day | TD50 (hamster, strain Syrian Golden, males, site: liver, lesion: hepatoma, dosed 102 weeks, study length 102 weeks): 13.3 mg/kg/day | TD50 (hamster, strain Syrian Golden, males, site: liver, lesion: liver-cell carcinoma, dosed 102 weeks, study length 102 weeks): 30 mg/kg/day | TD50 (hamster, strain Syrian Golden, males, site: liver, lesion: several types, types named in the paper, dosed 102 weeks, study length 102 weeks): 7.55 mg/kg/day | TD50 (mouse, strain Swiss albino, females, site: blood vessels, lesion: several types, types named in the paper, dosed 92 weeks, study length 92 weeks): 12.2 mg/kg/day | TD50 (mouse, strain Swiss albino, females, site: blood vessels, lesion: several types, types named in the paper, dosed 99 weeks, study length 100 weeks): 6.04 mg/kg/day | TD50 (mouse, strain Swiss albino, females, site: gall bladder, lesion: adenoma, dosed 65 weeks, study length 73 weeks): 31.5 mg/kg/day | TD50 (mouse, strain Swiss albino, females, site: gall bladder, lesion: adenoma, dosed 92 weeks, study length 92 weeks): 39.7 mg/kg/day | TD50 (mouse, strain Swiss albino, females, site: gall bladder, lesion: several types, types named in the paper, dosed 92 weeks, study length 92 weeks): 31.3 mg/kg/day | TD50 (mouse, strain Swiss albino, females, site: gall bladder, lesion: several types, types named in the paper, dosed 99 weeks, study length 100 weeks): 57.9 mg/kg/day | TD50 (mouse, strain Swiss albino, females, site: liver, lesion: angioma, dosed 97 weeks, study length 102 weeks): 23.8 mg/kg/day (inactive) | TD50 (mouse, strain Swiss albino, females, site: liver, lesion: hepatoma, benign, dosed 92 weeks, study length 92 weeks): 17.5 mg/kg/day | TD50 (mouse, strain Swiss albino, females, site: liver, lesion: hepatoma, benign, dosed 99 weeks, study length 100 weeks): 24.7 mg/kg/day | TD50 (mouse, strain Swiss albino, females, site: liver, lesion: hepatoma, dosed 65 weeks, study length 73 weeks): 19.5 mg/kg/day | TD50 (mouse, strain Swiss albino, females, site: liver, lesion: hepatoma, dosed 97 weeks, study length 102 weeks): 9.23 mg/kg/day (inactive) | TD50 (mouse, strain Swiss albino, females, site: liver, lesion: liver-cell carcinoma, dosed 65 weeks, study length 73 weeks): 19.9 mg/kg/day | TD50 (mouse, strain Swiss albino, females, site: liver, lesion: liver-cell carcinoma, dosed 92 weeks, study length 92 weeks): 22.4 mg/kg/day | TD50 (mouse, strain Swiss albino, females, site: liver, lesion: several types, types named in the paper, dosed 65 weeks, study length 73 weeks): 10.4 mg/kg/day | TD50 (mouse, strain Swiss albino, females, site: liver, lesion: several types, types named in the paper, dosed 92 weeks, study length 92 weeks): 8.66 mg/kg/day | TD50 (mouse, strain Swiss albino, females, site: lung, lesion: adenocarcinoma, dosed 97 weeks, study length 102 weeks): 1.12 mg/kg/day | TD50 (mouse, strain Swiss albino, females, site: lung, lesion: adenoma, dosed 97 weeks, study length 102 weeks): 1.5 mg/kg/day | TD50 (mouse, strain Swiss albino, females, site: lung, lesion: several types, types named in the paper, dosed 65 weeks, study length 73 weeks): 6.44 mg/kg/day | TD50 (mouse, strain Swiss albino, females, site: lung, lesion: several types, types named in the paper, dosed 92 weeks, study length 92 weeks): 2.16 mg/kg/day | TD50 (mouse, strain Swiss albino, females, site: lung, lesion: several types, types named in the paper, dosed 97 weeks, study length 102 weeks): 0.745 mg/kg/day | TD50 (mouse, strain Swiss albino, females, site: lung, lesion: several types, types named in the paper, dosed 99 weeks, study length 100 weeks): 0.921 mg/kg/day | TD50 (mouse, strain Swiss albino, males, site: bile duct, lesion: cholangioma, dosed 82 weeks, study length 82 weeks): 12.4 mg/kg/day | TD50 (mouse, strain Swiss albino, males, site: bile duct, lesion: several types, types named in the paper, dosed 65 weeks, study length 72 weeks): 36.2 mg/kg/day | TD50 (mouse, strain Swiss albino, males, site: blood vessels, lesion: several types, types named in the paper, dosed 96 weeks, study length 100 weeks): 3.47 mg/kg/day | TD50 (mouse, strain Swiss albino, males, site: forestomach, lesion: squamous-cell papilloma, dosed 97 weeks, study length 102 weeks): 11.2 mg/kg/day (inactive) | TD50 (mouse, strain Swiss albino, males, site: gall bladder, lesion: adenoma, dosed 65 weeks, study length 72 weeks): 38 mg/kg/day | TD50 (mouse, strain Swiss albino, males, site: gall bladder, lesion: adenoma, dosed 82 weeks, study length 82 weeks): 15.2 mg/kg/day | TD50 (mouse, strain Swiss albino, males, site: gall bladder, lesion: adenoma, dosed 96 weeks, study length 100 weeks): 9.88 mg/kg/day | TD50 (mouse, strain Swiss albino, males, site: gall bladder, lesion: several types, types named in the paper, dosed 96 weeks, study length 100 weeks): 9.1 mg/kg/day | TD50 (mouse, strain Swiss albino, males, site: liver, lesion: several types, types named in the paper, dosed 65 weeks, study length 72 weeks): 16.8 mg/kg/day | TD50 (mouse, strain Swiss albino, males, site: liver, lesion: several types, types named in the paper, dosed 82 weeks, study length 82 weeks): 1.03 mg/kg/day | TD50 (mouse, strain Swiss albino, males, site: liver, lesion: several types, types named in the paper, dosed 96 weeks, study length 100 weeks): 5.47 mg/kg/day | TD50 (mouse, strain Swiss albino, males, site: lung, lesion: adenocarcinoma, dosed 97 weeks, study length 102 weeks): 2.48 mg/kg/day | TD50 (mouse, strain Swiss albino, males, site: lung, lesion: adenoma, dosed 97 weeks, study length 102 weeks): 1.3 mg/kg/day | TD50 (mouse, strain Swiss albino, males, site: lung, lesion: several types, types named in the paper, dosed 65 weeks, study length 72 weeks): 14.2 mg/kg/day | TD50 (mouse, strain Swiss albino, males, site: lung, lesion: several types, types named in the paper, dosed 82 weeks, study length 82 weeks): 1.87 mg/kg/day | TD50 (mouse, strain Swiss albino, males, site: lung, lesion: several types, types named in the paper, dosed 96 weeks, study length 100 weeks): 1.72 mg/kg/day | TD50 (mouse, strain Swiss albino, males, site: lung, lesion: several types, types named in the paper, dosed 97 weeks, study length 102 weeks): 0.865 mg/kg/day | TD50 (mouse, strain Swiss albino, males, site: seminal vesicle, lesion: adenoma, dosed 82 weeks, study length 82 weeks): 20.7 mg/kg/day (inactive) | TD50 (mouse, strain Swiss albino, males, site: stomach, glandular, lesion: polypoid adenoma, dosed 97 weeks, study length 102 weeks): 3.43 mg/kg/day (inactive) | TD50 (mouse, strain Swiss albino, males, site: subcutaneous tissue, lesion: fibrosarcoma, dosed 97 weeks, study length 102 weeks): 2.6 mg/kg/day (inactive)
